In patent publication US20090104159A1, “Vascular/Lymphatic Endothelial Cells” (priority 2005, published 2009):

Tests used:
rat MAPCs = experiment: Endothelial differentiation of rat MAPCs (qRT-PCR); assay type: cell-based; conditions: Shh-antibody 0.5 micrograms/ml, cyclopamine 10 micromolar
Protocol: (§1) Glass 4-well chambers with were coated with 1 μg/ml human fibronectin (Sigma, F0895) for about 30 minutes to about 1 hour in the 37° C. incubator. The cells were collected (with the use of 0.05% trypsin), counted and resuspended at 120K/ml in mouse MAPC culture media (see above). The fibronectin was taken off and the cells were seeded (1 ml per well) (=Day 0). The cells were then incubated at 37° C., 5% O2 overnight. […] The media was changed 50% (using differentiation media) on day 4 and from then on, media changed 50% every other day. For rat cells, the differentiation media contained 2% serum.

mouse MAPCs = experiment: Endothelial differentiation of mouse MAPCs (qRT-PCR); assay type: cell-based; conditions: Shh-antibody 0.5 micrograms/ml, cyclopamine 10 micromolar
Protocol: as §1

hMAPCs [1] = experiment: Blocking of Patched and Notch pathways during hMAPC-EC differentiation; assay type: cell-based, human; conditions: hMAPC-ECs, 14 days, exogenous VEGF present, cyclopamine 5 μM; for expression of arterial EC markers Hey-2, EphrinB1 and EphrinB2: L-685,458 1 μM
Protocol: For real time RT-PCR Syber Green and Taq Man® methods were used as described (Hong et al., 2004). GAPDH was used as a housekeeping control. […] Primers used for both RT-PCR and real time PCR are shown below in Table 2.
Blocking of Patched and Notch pathways was performed using cyclopamine Watkins et al., 2003) (Biomol) at 5 μM (added every 4-5 days with media change) and 1 μM of esecretase inhibitor L-685,458 (Bachem) (Dahlqvist et al., 2003), respectively. Exogenous VEGF was present in the media for the blocking experiments (no exogenous Shh or Dll-4).

human MAPCs = conditions: about 10 ng/mL LIF, till 25 cell doublings; cited from earlier work
murine MAPCs = conditions: about 10 ng/mL LIF added to PDGF-BB and EGF; cited from earlier work
hMAPCs [2] = experiment: Smooth muscle differentiation from hMAPCs; assay type: cell-based, human; conditions: hMAPCs treated for 6 days, Q-RT-PCR and immunofluorescence
Protocol: Smooth muscle differentiation: hMAPCs were plated at 1×10^3 cells/cm^2 in growth media (58% low-glucose DMEM (Gibco BRL), 40% MCDB-201 (Sigma), 2% fetal calf serum (FCS) (Biochrom), ITS+1 (Sigma), 10^−8 M dexamethasone (Sigma), 10^−8 M ascorbic acid 2-phosphate (Sigma), 100 U penicillin, 1000 U streptomycin (Gibco BRL) and 10 ng/mL each of PDGF-BB and EGF during 24 hours and then media was exchanged with the same basal media, without FCS, EGF but now with 10 ng/ml TGF-β1. Media was changed every 4-5 days.

hMAPC = experiment: Lymphatic differentiation of hMAPC (real time PCR of Prox-1, Lyve-1, podoplanin); assay type: cell-based, human; conditions: compared with VEGF165 alone
Protocol: Arterial and/or venous differentiation was induced by addition of different combinations of the following growth factors: VEGF121 was used at 100 ng/ml and VEGF165 in different combinations with Delta-like 4 (Dll-4), Jagged-1, or Shh (all from R&DSystems) all at 100 ng/ml. Lymphatic differentiation was induced by addition of 100 ng/ml VEGF-C(R&DSystems) and 20 ng/ml bFGF (Sigma). Except for VEGF121, which was added alone, the other factors were added at the same time as VEGF165 in the various described combinations.
For real time RT-PCR Syber Green and Taq Man® methods were used as described (Hong et al., 2004). GAPDH was used as a housekeeping control. Results are presented as fold increase in comparison with the expression of the gene in undifferentiated cells or as percentage of positive control (cord blood derived venous and arterial ECs) (Jaffe et al., 1973; Neuhaus et al., 2003). Primers used for both RT-PCR and real time PCR are shown below in Table 2.

**Q.** Which results are given for `CC1=C2C[C@H]3[C@@H](CC=C4C[C@@H](O)CC[C@@]43C)[C@@H]2CC[C@]12O[C@@H]1C[C@H](C)CN[C@H]1[C@H]2C` [cyclopamine]?
**A.** arterial component in the cell cultures (rat MAPCs): decrease the arterial component; arterial component in the cell cultures (mouse MAPCs): decrease the arterial component; expression of the venous marker EphB4 (hMAPCs [1]): slightly increased; expression of arterial EC markers Hey-2, EphrinB1 and EphrinB2 (hMAPCs [1]): significantly decreased

**Q.** Which “expression of arterial EC markers Hey-2, EphrinB1 and EphrinB2” value (hMAPCs [1]) does the source give for `CC(C)C[C@H](NC(=O)[C@H](Cc1ccccc1)C[C@@H](O)[C@H](Cc1ccccc1)NC(=O)OC(C)(C)C)C(=O)N[C@@H](Cc1ccccc1)C(N)=O` [γ-secretase inhibitor, L-685,458] here?
**A.** Its value is “even more pronounced attenuation”.

**Q.** For “LIF: leukemia inhibitory factor, culture supplement”, which short-term cell growth (human MAPCs) is on record?
**A.** The short-term cell growth was “did not affect short-term cell growth”.

**Q.** And the cell growth (murine MAPCs)?
**A.** Its cell growth is “significantly enhanced cell growth”.

**Q.** For “TGF-β1: growth factor, 10 ng/ml, used for smooth muscle differentiation”, which “expression of SMC markers” value (hMAPCs [2]) is on record?
**A.** Its value is “upregulated expression of SMC markers”.

B1: VEGF-C: VEGF family growth factor (R&DSystems) used for lymphatic differentiation (protein, UniProt P49767 112-227, looked up)
Vascular endothelial growth …: AHYNTEILKSIDNEWRKTQCMPREVCIDVGKEFGVATNTFFKPPCVSVYRCGGCCNSEGLQCMNTSTSYLSKTLFEITVPLSQGPKPVTISFANHTSCRCMSKLDVYRQVHSIIRR
**Q.** With B1 as the molecule, how does the “expression of lymphatic genes Prox-1, Lyve-1 and podoplanin” value (hMAPC) read?
**A.** The value was “does not enhance expression of these genes more than VEGF165 alone”.
